Data reported in patent US7858084B2, “Methods of treatment with renalase (monoamine oxidase C)” (Yale University, priority 2005, dated 2010).
Like-named read-outs stand apart in the source and are kept apart here.

Legend:
[1] = biological target: renalase (Rattus norvegicus, UniProt Q5U2W9); settings: CKD rats compared with control rats
[2] = system: renalase
Experimental: Horizontal bars at top of figure indicate period of 5 minute epinephrine infusions.

Chain of renalase (Rattus norvegicus, UniProt Q5U2W9) (Q5U2W9 18-315): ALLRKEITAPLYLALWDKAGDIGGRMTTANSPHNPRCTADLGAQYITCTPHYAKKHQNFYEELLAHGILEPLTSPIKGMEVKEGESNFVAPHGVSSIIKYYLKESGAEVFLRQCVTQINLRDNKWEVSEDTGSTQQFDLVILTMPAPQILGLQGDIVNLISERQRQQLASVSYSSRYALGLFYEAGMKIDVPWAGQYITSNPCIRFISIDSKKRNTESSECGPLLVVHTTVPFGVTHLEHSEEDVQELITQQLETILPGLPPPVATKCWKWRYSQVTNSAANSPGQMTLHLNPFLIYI

SMILES: CNC[C@H](O)c1ccc(O)c(O)c1 [epinephrine]
- magnitude and duration of blood renalase activation [1]: significantly lower
- renalase protein levels in blood ([2]; second administration 30 minutes later): only a modest decline
- renalase protein levels in blood ([2]; shortly after an initial infusion of epinephrine): drop significantly
- renalase protein levels in blood ([2]; within ten minutes of the initial infusion): recover and exceed initial protein levels
